Molecules are shown by their SMILES. Where a name gives a salt, the structure may show the parent alone.

System in the first data set: not given
Experiment: not given
Details: not given
What is called melting point is the temperature, or range, at which the solid turns liquid. As for `CCc1c(C(=O)C(N)=O)c2c(OCC(=O)N(O)C3CCCCC3)cccc2n1Cc1ccccc1` (as salt: hydrochloride) [Compound 2An, 2-[[3-(Aminooxoacetyl)-2-ethyl-1-(phenylmethyl)-1H-indol-4-yl]oxy]-N-(cyclohexyl)-N-(hydroxy)acetamide], the melting point is 210 °C (dec.).
Still for that read-out and setting: for `C=CCONC(=O)COc1cccc2c1c(C(=O)C(N)=O)c(CC)n2Cc1ccccc1` (as salt: hydrochloride) [Compound 2Af, 2-[[3-(Aminooxoacetyl)-2-ethyl-1-(phenylmethyl)-1H-indol-4-yl]oxy]-N-(2-propenyloxy)acetamide] the value was 175 to 177 °C; for `CCc1c(C(=O)C(N)=O)c2c(OCC(=O)N(C)O)cccc2n1Cc1ccccc1` (as salt: hydrochloride) [Compound 2Ad, 2-[[3-(Aminooxoacetyl)-2-ethyl-1-(phenylmethyl)-1H-indol-4-yl]oxy]-N-(hydroxy)-N-(methyl)acetamide], 217 °C (dec.); for `CCONC(=O)COc1cccc2c1c(C(=O)C(N)=O)c(CC)n2Cc1ccccc1` (as salt: hydrochloride) [Compound 2Ae, 2-[[3-(Aminooxoacetyl)-2-ethyl-1-(phenylmethyl)-1H-indol-4-yl]oxy]-N-(ethyloxy)acetamide], 176 to 178 °C.
Still for that read-out and setting: for `CCc1c(C(=O)C(N)=O)c2c(OCC(=O)N(C)OCc3ccccc3)cccc2n1Cc1ccccc1` [Compound 2Ak, 2-[[3-(Aminooxoacetyl)-2-ethyl-1-(phenylmethyl)-1H-indol-4-yl]oxy]-N-(methyl)-N-(phenylmethyloxy)acetamide] the value was 186.5 to 188.5 °C; for `CCc1c(C(=O)C(N)=O)c2c(OCC(=O)NOC(C)(C)C)cccc2n1Cc1ccccc1` (as salt: hydrochloride) [Compound 2Ah, 2-[[3-(Aminooxoacetyl)-2-ethyl-1-(phenylmethyl)-1H-indol-4-yl]oxy]-N-(tert-butyloxy)acetamide], 203 to 205 °C.
On the same count and under the same terms, as for `CCc1c(C(=O)C(N)=O)c2c(OCC(=O)N(C)Oc3ccccc3)cccc2n1Cc1ccccc1` [Compound 2Am, 2-[[3-(Aminooxoacetyl)-2-ethyl-1-(phenylmethyl)-1H-indol-4-yl]oxy]-N-(methyl)-N-(phenyloxy)acetamide], the figure is 146 to 147.5 °C; as for `CCc1c(C(=O)C(N)=O)c2c(OCC(=O)NOc3ccccc3)cccc2n1Cc1ccccc1` (as salt: hydrochloride) [Compound 2Al, 2-[[3-(Aminooxoacetyl)-2-ethyl-1-(phenylmethyl)-1H-indol-4-yl]oxy]-N-(phenyloxy)acetamide], 205 °C (dec.); as for `CCc1c(C(=O)C(N)=O)c2c(OCC(=O)NOC)cccc2n1Cc1ccccc1` [Compound 2Ab, 2-[[3-(Aminooxoacetyl)-2-ethyl-1-(phenylmethyl)-1H-indol-4-yl]oxy]-N-(methyloxy)acetamide], 228 °C (dec.).
As for `CCc1c(C(=O)C(N)=O)c2c(OCC(=O)N(O)C(C)C)cccc2n1Cc1ccccc1` (as salt: hydrochloride) [Compound 2Ag, 2-[[3-(Aminooxoacetyl)-2-ethyl-1-(phenylmethyl)-1H-indol-4-yl]oxy]-N-(hydroxy)-N-(2-propyl)acetamide], the melting point is 202 °C (dec.).
Same read-out and setting: as for `CCc1c(C(=O)C(N)=O)c2c(OCC(=O)NOCc3ccccc3)cccc2n1Cc1ccccc1` (as salt: hydrochloride) [Compound 2Aj, 2-[[3-(Aminooxoacetyl)-2-ethyl-1-(phenylmethyl)-1H-indol-4-yl]oxy]-N-(phenylmethyloxy)acetamide], the figure is 167 to 169 °C.
Regarding `CCc1c(CC(N)=O)c2c(OCC(=O)NO)cccc2n1Cc1ccccc1` [Compound 2Ba, 2-[[3-(2-Amino-2-oxoethyl)-2-ethyl-1-(phenylnmethyl)-1H-indol-4-yl]oxy]-N-(hydroxy)acetamide], the melting point fell in the range of 187 to 189 °C.
The same measure, in the same setting: for `CCc1c(C(=O)C(N)=O)c2c(OCC(=O)N(C)OC)cccc2n1Cc1ccccc1` (as salt: hydrochloride) [Compound 2Ac, 2-[[3-(Aminooxoacetyl)-2-ethyl-1-(phenylmethyl)-1H-indol-4-yl]oxy]-N-(methyl)-N-(methyloxy)acetamide] the value was 168 to 170 °C.

A further data set deals with T1, recombinant human secreted phospholipase A2 (Homo sapiens, UniProt P14555).
T1 sequence (P14555 21-144): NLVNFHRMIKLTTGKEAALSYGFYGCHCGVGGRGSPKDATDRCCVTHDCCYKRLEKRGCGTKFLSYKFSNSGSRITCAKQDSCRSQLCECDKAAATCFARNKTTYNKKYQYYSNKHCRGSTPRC
Briefly: chromogenic assay for inhibitors of recombinant human secreted phospholipase A2 (diheptanoyl thio-PC/DTNB, 96 well microtiter plates). The format is biochemical. The following applies: included in the table for purposes of comparison only. The text has this: The following chromogenic assay procedure was used to identify and evaluate inhibitors of recombinant human secreted phospholipase A2. The assay described herein has been adapted for high volume screening using 96 well microtiter plates. A general description of this assay method is found in the article, “Analysis of Human Synovial Fluid Phospholipase A2 on Short Chain Phosphatidylcholine-Mixed Micelles: Development of a Spectrophotometric Assay Suitable for a Microtiterplate Reader”, by Laure J. Reynolds, Lori L. Hughes, and Edward A Dennis, Analytical Biochemistry, 204, pp. 190-197, 1992 (the disclosure of which is incorporated herein by reference): […]
A measured volume of racemic dipheptanoyl thio PC supplied in chloroform at a concentration of 100 mg/ml is taken to dryness and redissolved in 10 millimolar […]
• 1. […] Read absorbance of wells at 405 nanometers with an automatic plate reader.
All compounds were tested in triplicate. […] Compounds initially found to be active were reassayed to confirm their activity and, if sufficiently active, IC50 values were determined. […] In all cases, % inhibition measured at 405 nanometers generated by enzyme reactions containing inhibitors relative to the uninhibited control reactions was determined. […] IC50 were determined by plotting log concentration versus inhibition values in the range from 10-90% inhibition.
On to `CCc1c(C(=O)C(N)=O)c2c(OCC(=O)OC)cccc2n1Cc1ccccc1` [1 (SM), [[3-(2-Amino-1,2-dioxoethyl)-2-ethyl-1-(phenylmethyl)-1H-indol-4-yl]oxy]acetic acid methyl ester], for which the “inhibiting sPLA2 (statement in words)” value was “highly active”.
